Data on four compounds can be found in patent US8227431B2, “Nucleoside derivatives” (Hetero Drugs Limited, priority 2008, dated 2012).

Bounds are passed on as bounds.

The test system of data set [1] is HIV-1-93IN101. Kind of data set: P24 assay (viral p24 ELISA). In kind it is cell-based. The settings on record: Cell line Supt-1, Virus HIV-1-93IN101; for IC50: Human immunodeficiency virus 1, SUP-T1, p24 ELISA about 72 hours post infection, read-out: Inhibitory concentration 50 (IC50). Here is the method:
Viral p24 was measured after about 72 hours of post infection in presence of drugs using ABL p24 ELISA kit. 0.5 millions cells/well were taken into the 24 well plates and added increasing concentrations of drugs. 1 ng/ml of HIV-1 virus was added to each well and incubated for overnight at 37° C. (37° C. and 5% CO2). After about 16 hours incubation media was changed and added fresh media and cultured for about 72 hours. P24 was quantified at 4th day of post-infection using ABL kit according to manufacturer's instructions. The above described examples were tested in the two biological assays as described above and some compounds were found following results as shown in table 2. Cell line Supt-1; Virus: HIV-1-93IN101
Background: An ELISA detects its analyte on a solid surface through an enzyme-linked reagent.

Data set [2] in a line: Cell viability assay (MTT). In kind it is cell-based. Particulars: human, Supt-1 cells, Cell line Supt-1, about 14 hours incubation, read-out: Cytotoxicity concentration (CC50). As to the method:
Reduction of 3-(4,5-dimethylthiozol-2-yl)-2,5-diphenyltetrazolium bromide (MTT, sigma) is chosen as an optimal mend point of cell viability measurement (Mosmann, 1983; Cole, 1986; alley et al., 1988). Cells (0.2×10^6 cells per well) were seeded in 96-well plates. Increasing concentrations of compound were added to the cells and incubated at 37° C. for about 14 hours in a CO2 Incubator with 5% CO2. The media was replaced with a fresh growth medium along with 20 μL of 5 mg/ml 3-(4,5-dimethylthiazol-2-yl)-2,5-diphenyltetrazolium bromide (MTT, Sigma). After incubation for about 4 hours in a humidified atmosphere, the media was removed and 200 μL of 0.1N acidic isopropyl alcohol was added to the wells to dissolve the MTT-formazan crystals. The absorbance was recorded at 570 nm, immediately after the development of purple colour. Each experiment was conducted in triplicate and the data are represented as average, with standard deviation. Percent viability of the cells was computed with reference to the absorbance of reduced MTT in the experiments conducted in absence of any compound. The above described examples were tested in the two biological assays as described above and some compounds were found following results as shown in table 2. Cell line Supt-1; Virus: HIV-1-93IN101

With `C[C@]1(F)C(n2cnc3c(N)ncnc32)O[C@H](CO)[C@]1(C)O` (stereo partly drawn) [Example 2A, (2R,3S,4R)-5-(6-amino-9H-purin-9-yl)-4-fluoro-tetrahydro-2-(hydroxymethyl)-3,4-dimethylfuran-3-ol], in data set [1], the “Therapeutic Index (TI): CC50/IC50” value is greater than 1 and the IC50 was greater than 1000 µM. Further, the CC50 in data set [2] was greater than 1000 µM.

Consider `CC1(O)[C@@H](CO)OC(n2cnc3c(NC4CC4)ncnc32)[C@]1(C)F` (stereo partly drawn) [Example 16, (2R,4R)-5-(6-(cyclopropylamino)-9H-purin-9yl)-4-fluoro-tetrahydro-2-(hydroxymethyl)-3,4-dimethylfuran-3-ol], for which, in data set [1], the “Therapeutic Index (TI): CC50/IC50” value worked out at 1.4 and the IC50 amounted to 300 µM. For the same compound, the CC50 in data set [2] was found to be 424 µM.

In the case of `C[C@]1(F)[C@H](n2ccc(=O)[nH]c2=O)O[C@H](CO)[C@@]1(C)O` [Example 22, 1-((2R,4R)-3-fluoro-tetrahydro-4-hydroxy-5-(hydroxymethyl)-3,4-dimethylfuran-2-yl)pyrimidine-2,4(1H,3H)-dione], in data set [1], the “Therapeutic Index (TI): CC50/IC50” value was greater than 1 and the IC50 was greater than 1000 µM. Also, the CC50 in data set [2] is greater than 1000 µM.

For `C[C@]1(F)[C@H](n2ccc(N)nc2=O)O[C@H](CO)[C@@]1(C)O` [Example 23, 4-amino1-((2R,4R)-3-fluoro-tetrahydro-4-hydroxy-5-(hydroxymethyl)-3,4-dimethylfuran-2-yl)pyrimidin-2(1H)-one], in data set [1], the “Therapeutic Index (TI): CC50/IC50” value is greater than 1 and the IC50 is greater than 1000 µM. Further, the CC50 in data set [2] is greater than 1000 µM.
